For assay [1], the system named is 647V cells. The assay can be described thus: High throughput proliferation (HTP) assay. It is filed as cell-based. To be noted: read-out: CREBBP HTP IC50. The procedure, abridged: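 Exponentially growing 647V cells in DMEM with 15% FBS were treated in triplicate with increasing compound concentrations at 37° C, 5% CO2. Viable cell number was read by CellTiter-Glo luminescence on day 7; IC50 in micromolar.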

For assay [2], the target named is T1, CREBBP (1084-1701) (Homo sapiens, UniProt Q92793).
T1 construct: measured in the following biochemical assay using CREBBP (1084-1701); purchased
T1 sequence (Q92793 1084-1701): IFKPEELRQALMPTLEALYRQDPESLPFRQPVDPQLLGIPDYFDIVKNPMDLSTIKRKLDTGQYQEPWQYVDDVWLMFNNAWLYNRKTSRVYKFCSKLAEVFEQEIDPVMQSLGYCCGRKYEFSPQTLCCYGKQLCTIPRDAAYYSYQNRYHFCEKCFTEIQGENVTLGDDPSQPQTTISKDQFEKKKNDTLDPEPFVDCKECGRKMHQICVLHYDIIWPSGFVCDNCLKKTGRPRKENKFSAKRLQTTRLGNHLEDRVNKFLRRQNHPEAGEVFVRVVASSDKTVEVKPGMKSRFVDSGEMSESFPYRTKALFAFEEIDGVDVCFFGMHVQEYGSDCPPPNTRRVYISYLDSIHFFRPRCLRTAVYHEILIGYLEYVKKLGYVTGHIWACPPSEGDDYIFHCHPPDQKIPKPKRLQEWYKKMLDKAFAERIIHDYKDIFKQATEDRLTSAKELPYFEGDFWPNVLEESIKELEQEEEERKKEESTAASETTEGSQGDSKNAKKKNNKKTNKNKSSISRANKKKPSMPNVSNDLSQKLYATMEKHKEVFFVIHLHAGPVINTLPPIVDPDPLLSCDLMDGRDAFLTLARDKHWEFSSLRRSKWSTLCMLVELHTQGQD
The assay is described as follows: Biochemical assay for CREBBP (1084-1701), SAMDI. The following applies: read-out: CREBBP Biochemistry IC50. The procedure, abridged:
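CREBBP (1084-1701) preincubated with compound 30 min at RT, then substrate mix (biotin-H3 11-25 K14R/K23R peptide, acetyl-CoA) added for 30 min at RT. Reaction stopped with formic acid, neutralised with sodium bicarbonate. Peptide acetylation read by SAMDI mass spectrometry to derive IC50.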

The target in assay [3] is T2, EP300 (P300(1048-1664)) (Homo sapiens, UniProt Q09472).
T2 construct: P300(1048-1664)
T2 sequence (Q09472 1048-1664): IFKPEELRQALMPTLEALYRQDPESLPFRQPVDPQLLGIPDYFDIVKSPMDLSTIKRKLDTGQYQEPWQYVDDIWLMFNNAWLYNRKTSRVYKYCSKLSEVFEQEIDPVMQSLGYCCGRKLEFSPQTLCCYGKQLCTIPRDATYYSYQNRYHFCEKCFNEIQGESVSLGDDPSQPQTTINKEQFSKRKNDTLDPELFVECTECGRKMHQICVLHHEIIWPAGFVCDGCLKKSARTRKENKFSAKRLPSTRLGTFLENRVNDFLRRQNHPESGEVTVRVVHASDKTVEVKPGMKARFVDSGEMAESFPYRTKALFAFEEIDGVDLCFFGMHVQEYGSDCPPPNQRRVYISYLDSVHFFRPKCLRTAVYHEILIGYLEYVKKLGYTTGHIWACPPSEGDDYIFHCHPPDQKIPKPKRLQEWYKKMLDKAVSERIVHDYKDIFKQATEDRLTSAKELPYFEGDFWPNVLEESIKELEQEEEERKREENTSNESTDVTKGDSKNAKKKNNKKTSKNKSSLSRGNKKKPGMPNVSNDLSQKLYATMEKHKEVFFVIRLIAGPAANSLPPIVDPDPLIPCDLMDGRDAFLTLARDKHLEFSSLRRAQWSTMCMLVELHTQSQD
The assay can be described thus: Biochemical assay for EP300, SAMDI. To be noted: read-out: EP300 Biochemistry IC50. The source says: The following example describes materials and methods relating to a biochemical assay for EP300. IC50 values (micromolar (μM)) are summarized in Table 1, Table 2, and Table 3 under the column labeled: “EP300 Biochemistry IC50 (micromolar).”

Assay [4] deals with H3K18Ac in HB-CLS-2 cells. The assay can be described thus: H3K18AC in-cell western (ICW) assay. Format: cell-based. The following applies: read-out: CREBBP ICW IC50. The procedure, abridged: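 HB-CLS-2 cells seeded 16–24 hours before 2 hr compound treatment at 37° C, 5% CO2, then methanol-fixed. H3K18Ac detected with rabbit monoclonal primary (overnight, 4° C) and 800CW anti-rabbit secondary; DRAQ5 stained DNA. Plates imaged at 700 and 800 nm for integrated intensity; IC50 in μM.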

[5] abbreviates: Homo sapiens, 647-V, high throughput proliferation.

Read-outs that look alike come from different tables or passages of the source.

With `CCn1ncc(CN(C)C(=O)c2nc(-c3cnc[nH]3)nc3ccc(Cl)cc23)c1C` [Compound 109], the IC50 (as a rule, the concentration needed to halve the response being measured) in assay [1] (setting [5]) is 3500 nM; in assay [2] (SAMDI), 3900 nM; in assay [3] (EP300, SAMDI), 1400 nM; in assay [4] (H3K18Ac in-cell western) it was 2500 nM.
Taken in the same sequence, the figures for `CCn1ncc(CN(C)C(=O)c2cc(-c3cc(C(=O)NC)n(C)n3)nc3ccc(COC)cc23)c1C` [Compound 520] were 650 nM, 80.7 nM, 23.8 nM and 334 nM.
The corresponding values for `CCc1ncc(CN(C)C(=O)c2cc(-c3ccc(N(C)C4CN(C)C4)c(C)n3)nc3ccc(Cl)cc23)n1C` [Compound 572] are 133 nM, 116 nM, 23.3 nM and 197 nM.
`CCn1ncc(CN(C)C(=O)c2nc(-c3ccnc(N)c3)nc3ccc(Cl)cc23)c1C` [Compound 77]: the IC50 was found to be 760 nM in assay [1] (setting [5]); 1600 nM in assay [2] (SAMDI); 1300 nM in assay [3] (EP300, SAMDI); 1100 nM in assay [4] (H3K18Ac in-cell western).
Taken in the same sequence, the figures for `Cc1nc(-c2cc(C(=O)N(C)Cc3cnn(CC(F)(F)F)c3C)c3cc(Cl)ccc3n2)ccc1NCCN(C)C` [Compound 597] were 78.7 nM, 36.2 nM, 28.5 nM and 72.6 nM.
Taken in the same sequence, the figures for `CCn1ncc(CN(C)C(=O)c2cc(-c3ccc(NCCNC)c(C(F)(F)F)n3)nc3ccc(Cl)cc23)c1C` [Compound 471] were 29.2 nM, 35.8 nM, 9.5 nM and 88.6 nM.
In the case of `CCN(Cc1cnn(CC)c1C)C(=O)c1cc(-c2ccc(NCCNC)c(C)n2)nc2ccc(Cl)cc12` [Compound 456], the IC50 in assay [1] (setting [5]) was determined as 626 nM; in assay [2] (SAMDI) it was 104 nM; in assay [3] (EP300, SAMDI), 880 nM; in assay [4] (H3K18Ac in-cell western) it was 1410 nM.
The corresponding values for `CCn1ncc(CN(C)C(=O)c2nc(-c3ccc(OCCO)cn3)nc3ccc(Cl)cc23)c1C` [Compound 173] are 11000 nM, 17000 nM, 7800 nM and 14000 nM.
The corresponding values for `CCc1ncc(CN(C)C(=O)c2nc(-c3cc(N)c4c[nH]nc4c3)nc3ccc(Cl)cc23)n1C` [Compound 546] are 96.4 nM, 13.7 nM, 33.7 nM and 113 nM.
Taken in the same sequence, the figures for `CCc1ncc(CN(C)C(=O)c2cc(-c3ccc(NCCNC)c(C)n3)nc3ccc(COC)cc23)n1C` [Compound 513] were 203 nM, 68.4 nM, 35 nM and 470 nM.
On to `CCn1ncc(CN(C)C(=O)c2cc(-c3ccc(NCCNC)c(C)n3)nc3ccc(Cl)cc23)c1COC` [Compound 559], for which the IC50 was 1240 nM in assay [1] (setting [5]); 593 nM in assay [2] (SAMDI); 2050 nM in assay [3] (EP300, SAMDI); 838 nM in assay [4] (H3K18Ac in-cell western).
Take `CNc1[nH]nc2cc(C)c(-c3nc(C(=O)N(C)Cc4cnc(C5CC5)n4C)c4cc(COC)ccc4n3)cc12` [Compound 617]: the 50% inhibitory concentration (IC50) in assay [1] (setting [5]) turned out to be 84.1 nM; in assay [2] (SAMDI), 40.8 nM; in assay [3] (EP300, SAMDI), 13.3 nM; in assay [4] (H3K18Ac in-cell western), 87.6 nM.
`CCn1ncc(CN(C)C(=O)c2cc(-c3ccc(OCC(O)CNC)c(C)n3)nc3ccc(Cl)cc23)c1C` (stereo not shown) [Compound 435]: the concentration for half-maximal inhibition (IC50) turned out to be 102 nM in assay [1] (high throughput proliferation); 36.8 nM in assay [2] (SAMDI); 15.8 nM in assay [3] (EP300, SAMDI); 163 nM in assay [4] (H3K18Ac in-cell western).
Consider `CCn1ncc(CN(C)C(=O)c2nc(-c3cccc(N)n3)nc3ccc(Cl)cc23)c1C` [Compound 131], for which the IC50 turned out to be 7500 nM in assay [1] (setting [5]); 5500 nM in assay [2] (SAMDI); 2600 nM in assay [3] (EP300, SAMDI); 4700 nM in assay [4] (H3K18Ac in-cell western).
Take `CCn1ncc(CN(C)C(=O)c2nc(-c3ccc(OCCCN(C)C(=O)OC(C)(C)C)c(C)c3Cl)nc3ccc(Cl)cc23)c1C` [Compound 93]: the 50% inhibitory concentration (IC50) in assay [1] (setting [5]) is 1200 nM; in assay [2] (SAMDI), 140 nM; in assay [3] (EP300, SAMDI), 68 nM; in assay [4] (H3K18Ac in-cell western), 1700 nM.
The corresponding values for `CCn1ncc(CN(C)C(=O)c2nc(-c3cc(Cl)cc(NCCN(C)C(=O)OC(C)(C)C)c3)nc3ccc(Cl)cc23)c1C` [Compound 121] are 3800 nM, 410 nM, 860 nM and 3500 nM.
In the case of `COCc1ccc2nc(-c3ccc(NCCN(C)C)c(C)n3)cc(C(=O)N(C)Cc3cnc(C4CC4)n3C)c2c1` [Compound 641], the IC50 in assay [1] (Homo sapiens, 647-V, 168 h, 647V cells, day 7, CellTiter-Glo) came out at 111 nM; in assay [2] (Peptide #233, Acetyl-CoA, SAMDI mass spectrometry), 73.3 nM; in assay [3] (P300(1048-1664), Peptide #233, Ac-CoA, SAMDI mass spectrometry), 22.1 nM; in assay [4] (2 h, H3K18Ac in HB-CLS-2 cells, 2 hrs compound incubation) it was 200 nM.
For `CCn1ncc(CN(C)C(=O)c2nc(-c3cc(C)cc(NC4CNC(=O)C4)c3)nc3ccc(Cl)cc23)c1C` (stereo not shown) [Compound 539], the IC50 in assay [1] (setting [5]) is 1340 nM; in assay [2] (SAMDI), 30.4 nM; in assay [3] (EP300, SAMDI) it was 26.2 nM; in assay [4] (H3K18Ac in-cell western), 714 nM.
With `CCn1ncc(CN(C)C(=O)c2nc(-c3cc(Cl)cc(CN4CCNCC4)c3)nc3ccc(Cl)cc23)c1C` [Compound 124], the 50% inhibitory concentration (IC50) in assay [1] (setting [5]) was determined as 4100 nM; in assay [2] (SAMDI) it was 370 nM; in assay [3] (EP300, SAMDI) it was 1400 nM; in assay [4] (H3K18Ac in-cell western), 3900 nM.
With `CCn1ncc(CN(C)C(=O)c2cc(-c3ccc(NC4CN(CC(F)(F)F)C4)c(C)n3)nc3ccc(Cl)cc23)c1C` [Compound 603], the half-maximal inhibitory concentration (IC50) was 253 nM in assay [1] (setting [5]); 48.7 nM in assay [2] (SAMDI); 20.3 nM in assay [3] (EP300, SAMDI); 174 nM in assay [4] (H3K18Ac in-cell western).
Take `Cc1nc(-c2cc(C(=O)N(C)Cc3cn(C)c(CC(F)(F)F)n3)c3cc(Cl)ccc3n2)ccc1NCCN(C)C` [Compound 626]: the half-inhibitory concentration (IC50) in assay [1] (setting [5]) was found to be 5780 nM; in assay [2] (SAMDI) it was 3310 nM; in assay [3] (EP300, SAMDI), 4240 nM; in assay [4] (H3K18Ac in-cell western) it was 3210 nM.
The corresponding values for `CCn1ncc(C(C)N(C)C(=O)c2cc(-c3ccc(NCCNC)c(C)n3)nc3ccc(Cl)cc23)c1C` (stereo not shown) [Compound 533] are 79.6 nM, 183 nM, 32.4 nM and 159 nM.
For the compound `CCc1ncc(CN(C)C(=O)c2cc(-c3ccc(NCC(O)CN(C)C)c(C)n3)nc3ccc(Cl)cc23)n1C` (stereo not shown) [Compound 588], the IC50 in assay [1] (setting [5]) is 27.9 nM; in assay [2] (SAMDI), 28.6 nM; in assay [3] (EP300, SAMDI), 8.9 nM; in assay [4] (H3K18Ac in-cell western) it was 73.3 nM.
Taken in the same sequence, the figures for `CCn1ncc(CN(C)C(=O)c2nc(-c3ccc4nc(C)n(C(=O)OC(C)(C)C)c4c3)nc3ccc(Cl)cc23)c1C` [Compound 104] were 230 nM, 9200 nM, 13000 nM and 2200 nM.
Turning to `CCc1ncc(CN(C)C(=O)c2cc(-c3cc(-c4ncc[nH]4)n(C)n3)nc3ccc(Cl)cc23)n1C` [Compound 541], the IC50 in assay [1] (setting [5]) came out at 85.4 nM; in assay [2] (SAMDI), 11.2 nM; in assay [3] (EP300, SAMDI), 2.7 nM; in assay [4] (H3K18Ac in-cell western), 104 nM.
On to `CCn1ncc(CN(C)C(=O)c2nc(-c3ccc(OCCNC(C)=O)c(C)c3)nc3ccc(Cl)cc23)c1C` [Compound 43], for which the IC50 is 460 nM in assay [1] (setting [5]); 69 nM in assay [2] (SAMDI); 340 nM in assay [3] (EP300, SAMDI); 380 nM in assay [4] (H3K18Ac in-cell western).
The corresponding values for `CNc1[nH]nc2cc(C)c(-c3nc(C(=O)N(C)Cc4cnn(CC(F)(F)F)c4C)c4cc(Cl)ccc4n3)cc12` [Compound 620] are 77.7 nM, 25.1 nM, 12.3 nM and 67.2 nM.
Taken in the same sequence, the figures for `CCn1ncc(CN(C)C(=O)c2nc(-c3cc(CNC)ccc3C)nc3ccc(Cl)cc23)c1C` [Compound 116] were 1900 nM, 3400 nM, 6900 nM and 2900 nM.

The record behind these values is patent US20220144812A1, “QUINOLINE DERIVATIVES AND THEIR USE FOR THE TREATMENT OF CANCER” (Epizyme, Inc., priority 2019, published 2022).
